Structures can show the parent of a compound that is named as a salt.

As usually defined, the EC50 is the concentration at which the effect is half-maximal.

One experiment has as its target T1, human GPBAR1 receptor (Homo sapiens, UniProt Q8TDU6).
T1 construct: expressed in transfected cells
T1 sequence (Q8TDU6 1-330): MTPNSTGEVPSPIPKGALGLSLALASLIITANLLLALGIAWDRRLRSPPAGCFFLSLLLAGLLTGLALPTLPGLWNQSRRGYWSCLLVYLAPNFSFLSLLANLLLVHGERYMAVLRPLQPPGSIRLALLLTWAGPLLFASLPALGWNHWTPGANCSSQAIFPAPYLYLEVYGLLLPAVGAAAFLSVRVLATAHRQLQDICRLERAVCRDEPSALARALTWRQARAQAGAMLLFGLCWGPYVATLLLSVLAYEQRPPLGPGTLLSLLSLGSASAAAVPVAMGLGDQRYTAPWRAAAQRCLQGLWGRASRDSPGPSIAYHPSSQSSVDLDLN
The experiment is described as follows: functional cAMP assay in CHO-dhfr(minus) cells expressing human GPBAR1 receptors. It counts as cell-based. Particulars: functional cAMP assay, 30 min at 30° C., read-out: human EC50. The gist of the method:
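Agonist cAMP read-out: stable GPBAR1 CHO-dhfr− clone, 30 min compound exposure at 30° C following 30 min IBMX (1 mM) preincubation in Krebs Ringer bicarbonate. Time-resolved energy-transfer detection gives EC50; parental CHO cells serve as counter-screen.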
With `O/N=C(\CC(O)(c1ccccc1)c1ccccc1)c1ccncc1` [Example 154, (E)-3-Hydroxy-3,3-diphenyl-1-pyridin-4-yl-propan-1-one oxime], the EC50 was 549 nM.

The same experiment, now with this note: human EC50, functional cAMP assay, 30 min at 30° C.
As for `Cc1cc(Cl)ccc1C(C/C(=N\O)c1ccc(=O)n(C)c1)c1ccc(S(N)(=O)=O)cc1` (centres unmarked) [Example 338, (E)-4-(1-(4-chloro-2-methylphenyl)-3-(hydroxyimino)-3-(1-methyl-6-oxo-1,6-dihydropyridin-3-yl)propyl)benzenesulfonamide], the EC50 is 60 nM.
Still for that read-out and setting: in the case of `Cc1cc(Cl)ccc1C(C/C(=N\O)c1ccc(=O)n(C)c1)c1ccc(C(=O)NCCO)cc1` (centres unmarked) [Example 332, (E)-4-(1-(4-Chloro-2-methylphenyl)-3-(hydroxyimino)-3-(1-methyl-6-oxo-1,6-dihydropyridin-3-yl)propyl)-N-(2-hydroxyethyl)benzamide] it was 129 nM; in that of `Cc1ccccc1C(C/C(=N\O)c1cc(C)c(O)c(C)c1)c1ccc(Br)cc1` (centres unmarked) [Example 152, (E)-3-(4-Bromo-phenyl)-1-(4-hydroxy-3,5-dimethyl-phenyl)-3-o-tolyl-propan-1-one oxime], 5120 nM.
With `Cc1ccccc1[C@H](C/C(=N\O)c1cc(Cl)nc(Cl)c1)c1ccc(-c2ccc(C(=O)O)cc2)cc1` [Example 146, (E,R)-4′-(3-(2,6-Dichloropyridin-4-yl)-3-(hydroxyimino)-1-o-tolylpropyl)biphenyl-4-carboxylic acid], it took 164 nM to reach a half-maximal effect (EC50).
`Cn1cc(/C(CC(c2ccc(-c3ccc(C(=O)O)cc3)cc2)c2ccc(F)cc2F)=N/O)ccc1=O` (centres unmarked) [Example 403, 4′-[1-(2,4-Difluoro-phenyl)-3-[(E)-hydroxyimino]-3-(1-methyl-6-oxo-1,6-dihydro-pyridin-3-yl)-propyl]-biphenyl-4-carboxylic acid] yielded an EC50 of 138 nM.
As for `O/N=C(\CC(c1ccccc1)c1ccc(Br)cc1)c1cc(Cl)nc(Cl)c1` (centres unmarked) [Example 47, (E)-3-(4-Bromo-phenyl)-1-(2,6-dichloro-pyridin-4-yl)-3-phenyl-propan-1-one oxime], the EC50 came to 548 nM.
On to `Cc1cc(Cl)ccc1C(C/C(=N\O)c1ccc(=O)n(C)c1)c1ccc(O)c(F)c1` (centres unmarked) [Example 324, 5-{3-(4-Chloro-2-methyl-phenyl)-3-(3-fluoro-4-hydroxy-phenyl)-1-[(E)-hydroxyimino]-propyl}-1-methyl-1H-pyridin-2-one], for which the EC50 turned out to be 566 nM.
Compound `Cc1cc(C(CC(c2ccc(-c3ccc(C(=O)NCC(=O)O)cc3)cc2)c2ccccc2C)=NO)ccn1` (racemic) [Example 90, ({4′-[3-[Hydroxyimino]-3-(2-methyl-pyridin-4-yl)-1-o-tolyl-propyl]-biphenyl-4-carbonyl}-amino)-acetic acid] showed an EC50 of 10 nM.
Compound `Cc1cc(/C(C[C@H](c2ccc(C3=CCN(S(C)(=O)=O)CC3)cc2)c2ccccc2C)=N/O)ccn1` [Example 376, (R,E)-1-(2-Methylpyridin-4-yl)-3-(4-(1-(methylsulfonyl)-1,2,3,6-tetrahydropyridin-4-yl)phenyl)-3-o-tolylpropan-1-one oxime] showed an EC50 of 14 nM.
Regarding `Cc1ccccc1C(CC(=NO)c1cc(F)ncc1Cl)c1ccc(Br)cc1` (racemic) [Example 121, 3-(4-Bromo-phenyl)-1-(5-chloro-2-fluoro-pyridin-4-yl)-3-o-tolyl-propan-1-one oxime], the response was half-maximal at 24 nM (EC50).
In turn, `CNS(=O)(=O)c1ccc(-c2ccc(C(C/C(=N\O)c3ccncc3)c3ccccc3)cc2)cc1` (centres unmarked) [Example 21, 4′-{3-[(E)-Hydroxyimino]-1-phenyl-3-pyridin-4-yl-propyl}-biphenyl-4-sulfonic acid methylamide] came in with an EC50 of 303 nM.
Consider `Cc1cc(C(=O)O)ccc1-c1ccc(C(C/C(=N\O)c2ccc(=O)n(C)c2)c2ccc(Cl)cc2Cl)cc1` (single isomer, unassigned) [Example 477, 4′-[(−)-1-(2,4-Dichloro-phenyl)-3-[(E)-hydroxyimino]-3-(1-methyl-6-oxo-1,6-dihydro-pyridin-3-yl)-propyl]-2-methyl-biphenyl-4-carboxylic acid], for which the EC50 is 111 nM.
The compound `Cc1cc(/C(CC(c2ccc(C(=O)NC3CCCCC3)cc2)c2ccc(F)cc2F)=N/O)ccn1` (centres unmarked) [Example 436, N-Cyclohexyl-4-[1-(2,4-difluoro-phenyl)-3-[(E)-hydroxyimino]-3-(2-methyl-pyridin-4-yl)-propyl]-benzamide] registered an EC50 of 62 nM.
As for `Cc1cc(C(CC(c2ccc(-c3ccc(C(=O)O)c(Cl)c3)cc2)c2ccccc2C)=NO)ccn1` (racemic) [Example 84, 3-Chloro-4′-[3-[hydroxyimino]-3-(2-methyl-pyridin-4-yl)-1-o-tolyl-propyl]-biphenyl-4-carboxylic acid], the EC50 is 27 nM.
`Cc1cc(Cl)ccc1C(C/C(=N\O)c1ccc(=O)n(C)c1)c1ccc(Br)cc1` (centres unmarked) [Example 226, 5-{3-(4-Bromo-phenyl)-3-(4-chloro-2-methyl-phenyl)-1-[(E)-hydroxyimino]-propyl}-1-methyl-1H-pyridin-2-one] had an EC50 of 38 nM.
The same measure, in the same setting: for `Cc1cc(/C(C[C@H](c2ccc(N[C@H]3C[C@H](C(=O)O)C3)cc2)c2ccccc2C)=N/O)ccn1` [Example 356, 3-{4-[(R)-3-[(E)-Hydroxyimino]-3-(2-methyl-pyridin-4-yl)-1-o-tolyl-propyl]-phenylamino}-cyclobutanecarboxylic acid] the value was 90 nM; for `Cc1ccccc1[C@H](C/C(=N\O)c1ccc(=O)n(C)c1)c1ccc(-c2nnn[nH]2)cc1` [Example 500, (R,E)-5-(3-(4-(1H-Tetrazol-5-yl)phenyl)-1-(hydroxyimino)-3-o-tolylpropyl)-1-methyl-pyridin-2(1H)-one, sodium salt], 268 nM; for `CCOC(=O)c1ccc(-c2ccc([C@@H](C/C(=N\O)c3ccc(=O)n(C)c3)c3ccc(Cl)cc3F)cc2)s1` [Example 467, 5-{4-[(−)-1-(4-Chloro-2-fluoro-phenyl)-3-[(E)-hydroxyimino]-3-(1-methyl-6-oxo-1,6-dihydro-pyridin-3-yl)-propyl]-phenyl}-thiophene-2-carboxylic acid ethyl ester], 348 nM.
Turning to `Cc1cc(/C(C[C@H](c2ccc(N3CCN(S(C)(=O)=O)CC3)cc2)c2ccccc2C)=N/O)ccn1` [Example 144, (E,R)-1-(2-Methylpyridin-4-yl)-3-(4-(4-(methylsulfonyl)piperazin-1-yl)phenyl)-3-o-tolylpropan-1-one oxime], a half-maximal response (EC50) required 17 nM.
The same measure, in the same setting: in the case of `Cn1cc(/C(CC(c2ccc(-c3ccc(C(=O)O)cc3)cc2)c2ccc(F)cc2Cl)=N/O)ccc1=O` (centres unmarked) [Example 412, (E)-4′-(1-(2-chloro-4-fluorophenyl)-3-(hydroxyimino)-3-(1-methyl-6-oxo-1,6-dihydropyridin-3-yl)propyl)biphenyl-4-carboxylic acid] it was 30 nM; in that of `O/N=C(\CC(c1ccccc1)c1ccc(C2CC2)cc1)c1ccncc1` (centres unmarked) [Example 16, (E)-3-(4-Cyclopropyl-phenyl)-3-phenyl-1-pyridin-4-yl-propan-1-one oxime], 178 nM; in that of `Cc1cc(/C(C[C@@H](c2ccc(-c3ccc(C(=O)O)cc3)cc2)c2ccc(F)cc2C)=N/O)ccn1` (single isomer, unassigned) [Example 398, (−)-4′-[1-(4-Fluoro-2-methyl-phenyl)-3-[(E)-hydroxyimino]-3-(2-methyl-pyridin-4-yl)-propyl]-biphenyl-4-carboxylic acid; compound with triethylamine 1:0.75], 3 nM.
